Measurements published in patent US11352391B2, “Compositions for inducing urinary voiding and defecation” (Dignify Therapeutics, LLC, priority 2017, dated 2022).
Where a SMILES comes first, the peptide text is derived from it.

Columns and labels:
[1] = Saline solubility of heptapeptides; assay type: physicochemical
Procedure: Heptapeptides A-K shown below in Table 1 (SEQ ID NOs: 1-11) were synthesized according to standard Fmoc-mediated solid-phase techniques and purified under typical C18 reverse-phase conditions.
Compounds D-K were considered to be insoluble in saline (<1 mg/mL).

[2] = target: T1, human NK2 Receptor (hNK2R) (Homo sapiens, UniProt P21452); test: [125I]-NKA radioligand competition binding to human recombinant NK2Rs (CHO-hNK2 membranes)
T1 sequence (P21452 1-398): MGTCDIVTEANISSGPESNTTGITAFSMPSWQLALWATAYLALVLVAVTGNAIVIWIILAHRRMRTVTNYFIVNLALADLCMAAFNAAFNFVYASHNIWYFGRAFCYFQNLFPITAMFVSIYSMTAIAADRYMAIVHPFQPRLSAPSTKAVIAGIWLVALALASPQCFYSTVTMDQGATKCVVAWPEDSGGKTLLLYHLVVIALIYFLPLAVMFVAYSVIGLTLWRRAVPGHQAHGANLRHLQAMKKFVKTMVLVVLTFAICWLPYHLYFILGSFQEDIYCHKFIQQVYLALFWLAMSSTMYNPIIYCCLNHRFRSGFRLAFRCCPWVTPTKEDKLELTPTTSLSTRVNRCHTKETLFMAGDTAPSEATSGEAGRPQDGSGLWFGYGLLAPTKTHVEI
Procedure: (§1) After removal of the supernatant the cell pellet was washed and collected by re-suspension in PBS and centrifugation.
(§2) Frozen pellets were thawed and homogenized in 10 volumes (w/v) of membrane preparation buffer (50 mM HEPES pH 7.4, 1 mM EDTA, 50 μg/mL bacitracin and protease inhibitors) using a Polytron Ultraturrax (twice for 15 s per cycle). […] Protein concentration was determined using BioRad Protein Assay (Milan, Italy) with a BSA standard curve.

[3] = target: human NK1 Receptor (hNK1R) (Homo sapiens, UniProt P25103); test: [3H]-septide radioligand competition binding to human recombinant NK1Rs (CHO-hNK1 membranes); conditions: displacement of 5.0 nM [3H]-septide, CHO-hNK1 membranes; read-out: hNK1 binding Ki
Sequence of human NK1 Receptor (hNK1R) (P25103 whole entry): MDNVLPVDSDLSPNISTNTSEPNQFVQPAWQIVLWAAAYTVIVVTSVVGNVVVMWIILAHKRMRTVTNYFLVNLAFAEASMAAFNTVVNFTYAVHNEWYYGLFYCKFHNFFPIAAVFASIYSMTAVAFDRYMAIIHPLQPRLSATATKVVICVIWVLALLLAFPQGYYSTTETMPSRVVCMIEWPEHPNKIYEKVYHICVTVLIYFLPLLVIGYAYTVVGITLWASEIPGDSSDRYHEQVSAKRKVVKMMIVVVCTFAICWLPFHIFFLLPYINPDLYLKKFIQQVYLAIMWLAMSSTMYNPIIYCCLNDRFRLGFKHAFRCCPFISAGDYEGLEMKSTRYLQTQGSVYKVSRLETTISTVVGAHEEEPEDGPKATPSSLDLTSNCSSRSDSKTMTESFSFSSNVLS
Procedure: as §1, §2

[4] = target: T2, recombinant hNK2R expressed in CHO cells (Homo sapiens, UniProt P21452); test: Intracellular calcium mobilization (FLIPR) in CHO-hNK2 cells; assay type: cell-based
T2 sequence (P21452 1-398): T1 sequence (P21452 1-398)
Procedure: (§3) CHO-hNK1 and CHO-hNK2 cells were seeded into black walled clear-bottom 384-well plates) at a density of 10,000 and 15,000 cells per well in 50 μL culture media, respectively, and grown overnight at 37° C. in a humidified CO2-incubator. Cells were washed in washing buffer using the EMBLA 384 instrument, leaving 20 μL of buffer per well after the final aspiration. Cells were then incubated at 37° C. with the cytoplasmic Ca2+ indicator Fluo-4 AM (final concentration 1 μM) in assay buffer (20 mM HEPES, 145 mM NaCl, 5 mM KCl, 5.5 mM glucose, 1 mM MgCl2 and 2 mM CaCl2, pH 7.4, 0.05% Pluronic F-127 and 0.1% BSA) containing 2.5 mM probenecid for […] (cell loading). Cells were then washed 3 times in washing buffer (20 mM HEPES, 145 mM NaCl, 5 mM KCl, 5.5 mM glucose, 1 mM MgCl2 and 2 mM CaCl2, pH 7.4 and 2.5 mM probenecid) using the EMBLA 384 instrument, leaving 30 μL of buffer in each well after the last wash. Loaded cell plates were transferred to the FLIPR machine and calcium responses were monitored as described below. A dual read-out FLIPR protocol was used, allowing for characterization of both agonist and antagonist profiles. For quality control, in each compound plate the signal was monitored by evaluating the responses to the reference standards (NKA and Substance P).
(§4) Concentration response curves of compounds were run in duplicate on two different occasions from the same stock solutions. Test solutions were prepared from 10 mM stock solutions in DMSO and 1 μL of each solution was stamped into V-bottom assay plates containing 49 μL assay buffer. The final concentration of DMSO was 0.5% in each well.

[5] = target: recombinant hNK1R expressed in CHO cells (Homo sapiens, UniProt P25103); test: Intracellular calcium mobilization (FLIPR) in CHO-hNK1 cells; assay type: cell-based; conditions: calcium mobilization, CHO-hNK1 cells; read-out: hNK1 EC50
Sequence of recombinant hNK1R expressed in CHO cells (P25103 whole entry): as above
Procedure: as §3, §4

[6] = Pharmacokinetics in rat plasma after cassette IV bolus dosing; conditions: Sprague-Dawley, in vivo, iv
Procedure: The concentrations of compounds (SEQ ID NOS: 1-11) were measured in rat plasma after intravenous (IV) bolus dosing to determine pharmacokinetic profiles of individual compounds.
Animal preparation: In vivo studies were performed in anesthetized adult Sprague Dawley rats. Rats were anesthetized with urethane (1.2-1.4 g/kg subcutaneous injection). Surgical procedures were then performed with the addition of isoflurane anesthesia (0.05-1.5% in 02) as needed. A venous cannula was inserted into the jugular vein for intravenous (IV) administration of compounds.
In vivo dosing and plasma sampling: Compounds were divided into two groups (soluble and insoluble). Each group was dosed as a cassette in which four compounds (100 μg/kg each compound) were combined into a single IV bolus injection to anesthetized adult Sprague-Dawley rats. Soluble compounds were dissolved in saline. Insoluble compounds were dissolved in a 10% ethanol/saline solution. Rats were cassette dosed based on weight using 0.1 mg/mL solutions of individual compounds. Blood samples (700 μL) were collected using a carotid artery cannula into EDTA tubes containing ascorbic acid (final concentration 1%), and plasma was isolated.
Bioanalytical assay: A reversed-phase HPLC with Turbo Ion Spray MS/MS detection method was developed for bioanalysis. Mass spec transition and settings were individually optimized for each compound and then compounds were cassetted for HPLC method development and optimization. [^13C9; ^15N] [Lys5,MeLeu9,Nle10]-NKA(4-10) was used as an internal standard (IS). Analyte-to-IS peak area ratios for individual compounds were used to create linear calibration curves (1-20 ng/mL) using 1/×2 weighted least-squares regression analysis for evaluation of method linearity, precision and accuracy. For plasma concentration measurements, plasma samples were spiked with IS, processed by extraction, and analyzed using LC-MS/MS. Positive (M+H)+ ions for individual compounds and IS were monitored in MRM mode.

anesthetized dog = test: Colorectal pressure manometry in anesthetized dog; assay type: in vivo
Procedure: Animal preparation: Naïve beagle dogs were fasted for 12-24 hours and received a warm water enema the night prior to, and the morning of, the experiment to clear the rectum and lower colon of feces. The day of the experiment, a 20 gauge IV catheter (Terumo Surflo) was placed in the cephalic vein for anesthetic induction (propofol, 10 mg/kg; IV) and delivery of IV fluids (5-10 ml/kg/hr) and compounds. The sedated dog was intubated with a 5-6 Fr tracheal tube and was maintained on 2-3% isoflurane via a ventilator (15-25 breaths/min; tidal volume […]) for the remainder of the experiment.
Bowel contractility: For colorectal pressure manometry, an ˜3 inch balloon catheter was inserted into the rectum and secured to the tail with tape. This catheter was connected via a three-way stopcock to a pressure transducer (UTAH MEDICAL PRODUCTS; DelTran II) for pressure recording. Data were recorded using PowerLab/8SP acquisition system using LabChart software (version 7.3.7; ADINSTRUMENTS, Australia). Arterial pressure, ECG, temperature and blood oxygen saturation (spO2) were monitored throughout the experiment (MEDTRONIC LIFEPAK12). Dogs were recovered in a quiet room under veterinary supervision.

For `CCCC[C@H](NC(=O)[C@H](CC(C)C)NC(=O)CCNC(=O)[C@@H](NC(=O)[C@H](Cc1ccccc1)NC(=O)[C@H](CCCCN)NC(=O)[C@@H](N)CC(=O)O)C(C)C)C(N)=O` [Compound G, Asp-Lys-Phe-Val-(β-Ala)-Leu-Nle-NH2] (HELM PEPTIDE1{D.K.F.V.[bAla].L.[Nle].[am]}$$$$V2.0; N-terminus assumed), the solubility [1] was < 1000 µg/mL, the Ki ([2]; displacement of 0.1 nM [125I]-NKA, CHO-hNK2 membranes, read-out: hNK2 binding Ki) was 16.4 nM and the hNK2 selectivity ratio ([2]; ratio of Kis hNK1R/hNK2R) was 188.58. The Ki [3] was 3090 nM, the EC50 ([4]; calcium mobilization, CHO-hNK2 cells, read-out: hNK2 EC50) was 3 nM and the hNK2 selectivity ratio ([4]; ratio of EC50s hNK1R/hNK2R) was 26. The EC50 [5] was 78.2 nM, the half-life [6] was 3.3 to 4.7 min and the “duration of colorectal pressure response” value (anesthetized dog; IV bolus (B and E 3 μg/kg; G 3, 30 and 66 ug/kg)) was “approximately 5 minutes”. The “onset of increase in colorectal pressure” value (anesthetized dog; IV bolus (E 3 μg/kg; G 3, 30 and 66 ug/kg)) was ≤ 1 min.
